Source: publication PMC6270011, “Design and Synthesis of Arylthiophene-2-Carbaldehydes via Suzuki-Miyaura Reactions and Their Biological Evaluation” (Molecules, 2013)

Target: urease enzyme (Canavalia ensiformis, UniProt P07374)
Details: for %age Activity at 25 μg (urease inhibition): 25 µg/mL; for %age Activity at 50 μg (urease inhibition): 50 µg/mL

Chain of urease enzyme (P07374 whole entry, looked up): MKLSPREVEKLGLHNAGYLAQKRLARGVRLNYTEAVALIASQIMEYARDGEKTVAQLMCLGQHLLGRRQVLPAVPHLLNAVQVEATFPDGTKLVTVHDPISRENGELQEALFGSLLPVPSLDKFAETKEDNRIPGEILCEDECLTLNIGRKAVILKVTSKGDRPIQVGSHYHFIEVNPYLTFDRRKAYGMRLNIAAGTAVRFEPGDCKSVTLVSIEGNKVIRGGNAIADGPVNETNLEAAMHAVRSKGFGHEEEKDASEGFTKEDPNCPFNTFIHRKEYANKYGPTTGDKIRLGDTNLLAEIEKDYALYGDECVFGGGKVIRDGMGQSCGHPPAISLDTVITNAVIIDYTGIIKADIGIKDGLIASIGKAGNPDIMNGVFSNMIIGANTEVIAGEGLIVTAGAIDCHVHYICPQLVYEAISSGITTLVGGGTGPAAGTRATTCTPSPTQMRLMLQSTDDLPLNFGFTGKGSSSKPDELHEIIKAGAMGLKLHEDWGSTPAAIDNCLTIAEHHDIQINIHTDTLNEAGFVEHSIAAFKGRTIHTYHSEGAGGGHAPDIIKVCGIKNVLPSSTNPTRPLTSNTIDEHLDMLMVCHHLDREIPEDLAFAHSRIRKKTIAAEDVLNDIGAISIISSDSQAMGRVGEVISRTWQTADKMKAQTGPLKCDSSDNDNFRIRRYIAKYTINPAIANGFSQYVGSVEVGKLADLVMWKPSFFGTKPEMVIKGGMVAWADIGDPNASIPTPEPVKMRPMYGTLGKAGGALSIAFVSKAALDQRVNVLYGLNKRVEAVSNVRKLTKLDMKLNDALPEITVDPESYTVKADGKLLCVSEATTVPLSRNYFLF

SMILES | %age Activity at 25 μg (urease inhibition) [%] | %age Activity at 50 μg (urease inhibition) [%]
Cc1ccc(-c2csc(C=O)c2)cc1 [2e, 4-p-Tolylthiophene-2-carbaldehyde] | 44.5 ± 0.057 | 76.5 ± 0.05
O=Cc1cc(-c2cc(C(F)(F)F)cc(C(F)(F)F)c2)cs1 [2b, 4-(3,5-Bis(trifloromethyl)phenyl)thiophene-2-carbaldehyde] | 35 ± 0.014 | 87.0 ± 0.084
Cc1cc(C)cc(-c2csc(C=O)c2)c1 [2g, 4-(3,5-Dimethylphenyl)thiophene-2-carbaldehyde] | 42.5 ± 0.0070 | 87.2 ± 0.5
O=Cc1cc(-c2ccccc2)cs1 [2a, 4-Phenylthiophene-2-carbaldehyde] | 45 ± 0.0162 | 86.9 ± 0.012
Cc1ccc(-c2csc(C=O)c2)s1 [2j, 5-Methyl-2,3-bisthiophene-5-carbaldehyde] | 2 ± 0.219 | 9.7 ± 0.2
O=Cc1cc(-c2ccc(F)c(Cl)c2)cs1 [2i, 4-(3-Chloro-4-fluorophenyl)thiophene-2-carbaldehyde] | 46.2 ± 0.0042 | 90.6 ± 0.05
O=Cc1cc(-c2ccc(Cl)s2)cs1 [2c] | 44 ± 0.0042 | 87.8 ± 0.006
O=Cc1cc(-c2ccc(Cl)c(Cl)c2)cs1 [2h, 4-(3,4-Dichlorophenyl)thiophene-2-carbaldehyde] | 44 ± 0.084 | 86.4 ± 0.44
N#Cc1cc(-c2csc(C=O)c2)cc(C(F)(F)F)c1 [2d, 3-(5-Formylthiophene-3-yl)-5-(trifloromethyl)benzonitrile] | 37 ± 0.0042 | 88.7 ± 0.005
COc1ccc(-c2csc(C=O)c2)cc1 [2f, 4-(4-Methoxyphenyl)thiophene-2-carbaldehyde] | 42.3 ± 0.0007 | 80.2 ± 0.0017
